Results on 40 molecules are retold here after ChEMBL document CHEMBL4483862, “Open-source discovery of chemical leads for next-generation chemoprotective antimalarials” (2018).

Each structure is given as a SMILES string. Bounds are passed on as bounds.

The subject of this test is Plasmodium berghei. The test is described as follows: Luciferase/luciferin-expressing antifolate-resistant parasites were used to infect a culture of HepG2 cells that were pre-incubated with compounds. Infected hepatocytes emit light due to the luciferase reaction. Assay results are presented as the percent inhibition of light emission compared to control. […]. The test is classed as functional. Conditions: sporozoite; for IC90: read-out: LUCIFERASE INFECTION ASSAY - IC90.

Setting [1] is: read-out: LUCIFERASE INFECTION ASSAY - IC50.

`O=C(CNC(=O)c1ccc(Oc2ccccc2)cc1)Nc1nccs1`: the IC90 (usually the concentration at which the effect reaches the 90% level) was over 10 µM. Besides, the IC50 – broadly, the concentration that inhibits the measured activity by half – (PBLUC_HILL_SLOPE 15.5, PBLUC_R_SQUARED 0.469, read-out: LUCIFERASE INFECTION ASSAY - IC50) turned out to be 9.34 µM.
`CS(=O)(=O)c1ccc(S(=O)(=O)Oc2ccc(C3CCCCC3)cc2)cc1`: the IC90 was over 10 µM. For the same molecule, the IC50 (HEPG2TOX_HILL_SLOPE 0.47, HEPG2TOX_R_SQUARED 0.776, PBLUC_HILL_SLOPE 1, PBLUC_R_SQUARED 0.337, read-out: LUCIFERASE INFECTION ASSAY - IC50) turned out to be 6.62 µM.
For the molecule `CCN(CC)c1ccc(Nc2nc(-c3ccncc3)cs2)cc1`, the IC90 is over 8.14 µM. Further, under “HEPG2TOX_HILL_SLOPE 17.3, HEPG2TOX_R_SQUARED 0.807, PBLUC_HILL_SLOPE 2.78, PBLUC_R_SQUARED 0.42, read-out: LUCIFERASE INFECTION ASSAY - IC50”, the IC50 was 4.75 µM.
For `N#Cc1cc(-c2nc(-c3ccccc3)cs2)c(N)[nH]c1=S`, the IC90 is over 10 µM. Besides, the IC50 (PBLUC_HILL_SLOPE 3, PBLUC_R_SQUARED 0.293, read-out: LUCIFERASE INFECTION ASSAY - IC50) is 6.32 µM.
`Cc1ccc2nc(NC(=O)c3ccc(F)cc3F)c(C(=O)NC3CCCC3)n2c1`: the IC90 was determined as 2.97 µM. Moreover, under “HEPG2TOX_HILL_SLOPE 1.63, HEPG2TOX_R_SQUARED 0.945, PBLUC_HILL_SLOPE 15.6, PBLUC_R_SQUARED 0.398, read-out: LUCIFERASE INFECTION ASSAY - IC50”, the IC50 came out at 2.58 µM.
As to `COc1ccccc1NCC(=O)N/N=C/c1cc(C)c2cc(C(C)C)ccc(C)c1-2`, the IC90 was over 10 µM. Under setting [1], the IC50 is over 10 µM.
For `Cc1cc(C(C)(C)C)cc(C)c1CCN1C(=O)CSC1c1cccnc1` (stereo not given), the concentration for an effect of 90% (IC90) is over 10 µM. Under setting [1], the IC50 is over 10 µM.
On to `CC(C)(C)c1ccc(C(O)c2nc(C(=O)NC3CC3)cs2)cc1` (stereo not given), for which the IC90 was 1.29 µM. Also, the IC50 (HEPG2TOX_HILL_SLOPE 1.09, HEPG2TOX_R_SQUARED 0.894, PBLUC_HILL_SLOPE 10.5, PBLUC_R_SQUARED 0.569, read-out: LUCIFERASE INFECTION ASSAY - IC50) amounted to 1.05 µM.
On to `COc1ccc(-n2nc(C)c3c(=O)c(Cl)c(C)[nH]c32)cc1`, for which the IC90 is over 10.9 µM. Also, the IC50 (PBLUC_HILL_SLOPE 4.15, PBLUC_R_SQUARED 0.0529, read-out: LUCIFERASE INFECTION ASSAY - IC50) is 10.4 µM.
Take `O=C(NC(=O)c1ccc(F)c(Cl)c1)Nc1nnc(C(F)(F)F)s1`: the IC90 was over 8.95 µM. Moreover, the IC50 (PBLUC_HILL_SLOPE 12, PBLUC_R_SQUARED 0.227, read-out: LUCIFERASE INFECTION ASSAY - IC50) was 8.64 µM.
With `CCOCCC(=O)Nc1ccc2c(c1)c(=O)n(C)n2Cc1cccc(C(F)(F)F)c1`, the IC90 was over 7.83 µM. Besides, under setting [1], the IC50 is over 7.83 µM.
`COc1ccc(NCc2csc(-c3ccccc3)n2)cc1Cl`: the IC90 was over 10 µM. In addition, the IC50 under setting [1] is over 10 µM.
Consider `Cn1c(-c2ccco2)nc2cnc(Nc3cccc(F)c3)cc21`, for which the IC90 is over 10 µM. Besides, the IC50 (HEPG2TOX_HILL_SLOPE 1.1, HEPG2TOX_R_SQUARED 0.907, read-out: LUCIFERASE INFECTION ASSAY - IC50) is over 10 µM.
For `Brc1ccc(/C=N/c2ccccc2N2CCOCC2)cc1`, the IC90 is over 10 µM. For the same molecule, under setting [1], the IC50 is over 10 µM.
For the molecule `Cc1c(-n2c(SCn3nnc4ccccc4c3=O)nc3ccccc3c2=O)c(=O)n(-c2ccccc2)n1C`, the IC90 is over 10 µM. The IC50 (PBLUC_HILL_SLOPE 10.1, PBLUC_R_SQUARED 0.287, read-out: LUCIFERASE INFECTION ASSAY - IC50) was found to be 9.23 µM.
Take `CCC(C)NC(=O)c1c(NC(=O)c2cc(F)c(F)cc2F)nc2ccc(C)cn12` (stereo not given): the IC90 worked out at 1.1 µM. Further, the IC50 under setting [1] was 0.917 µM.
The like results for `Cc1cc(OCC(=O)NC(C)c2ccc(-n3cncn3)cc2)no1` (stereo not given) were, in that order, over 10 µM and over 10 µM.
The like results for `CN(C)c1ccc(/C=C/c2ccc3c4ccccc4ccc3[n+]2-c2ccccc2)cc1` were, in that order, 1.23 µM and 1.07 µM.
`O=C(Nc1ccc2c(c1)OC1(CCCCC1)O2)c1ccc[nH]c1=S`: the IC90 came to 4.02 µM. Further, the IC50 (PBLUC_HILL_SLOPE 0.703, PBLUC_R_SQUARED 0.661, read-out: LUCIFERASE INFECTION ASSAY - IC50) is 0.176 µM.
Regarding `CC1(C(=O)NCc2cccnc2)CCN1Cc1ccccc1Cl` (stereo not given), the IC90 is over 10 µM. Further, the IC50 (PBLUC_HILL_SLOPE 2.38, PBLUC_R_SQUARED 0.474, read-out: LUCIFERASE INFECTION ASSAY - IC50) is 4.27 µM.
Turning to `OC(c1ccccc1)c1cccs1` (stereo not given), the IC90 was over 17.3 µM. In addition, the IC50 under setting [1] is over 17.3 µM.
As to `CS(=O)(=O)Nc1cccc(CNC(=O)c2cccc3c4c([nH]c23)CCCC4)c1`, the IC90 was over 10 µM. For the same molecule, the IC50 (HEPG2TOX_HILL_SLOPE 8.62, HEPG2TOX_R_SQUARED 0.723, PBLUC_HILL_SLOPE 1.82, PBLUC_R_SQUARED 0.711, read-out: LUCIFERASE INFECTION ASSAY - IC50) was determined as 5.31 µM.
As to `O=C(NCc1ccc(Oc2ccc(F)cc2)cc1)c1ccc(=O)[nH]n1`, the IC90 was over 10 µM. For the same molecule, for the setting “HEPG2TOX_HILL_SLOPE 2.29, HEPG2TOX_R_SQUARED 0.724, PBLUC_HILL_SLOPE 1.94, PBLUC_R_SQUARED 0.162, read-out: LUCIFERASE INFECTION ASSAY - IC50”, the IC50 came out at 5.95 µM.
For `CCC(CC)c1nn(CC(=O)c2cc(C)n(CCOC)c2C)c(=N)s1`, the IC90 was over 10 µM. Moreover, under “PBLUC_HILL_SLOPE 8.4, PBLUC_R_SQUARED 0.0548, read-out: LUCIFERASE INFECTION ASSAY - IC50”, the IC50 was 9.17 µM.
On to `N#Cc1cnc(S)nc1N`, for which the IC90 is over 21.7 µM. The IC50 under setting [1] was over 21.7 µM.
As to `Cc1cc(O)c(CN2CCN(C(=O)C34CC5CC(CC(C5)C3)C4)CC2)cc1C`, the IC90 was over 10 µM. Besides, the IC50 under setting [1] was over 10 µM.
In the case of `CCN(CC)c1ccc(/C=N/NC(=S)NC(C)C)c(O)c1`, the IC90 was over 10 µM. Besides, for the setting “PBLUC_HILL_SLOPE 3.12, PBLUC_R_SQUARED 0.566, read-out: LUCIFERASE INFECTION ASSAY - IC50”, the IC50 worked out at 7.29 µM.
Turning to `CC(=O)Nc1ccc(-c2ccnc3n[nH]c(-c4ccsc4)c23)cc1`, the IC90 stood at 8.76 µM. The IC50 (HEPG2TOX_HILL_SLOPE 11.6, HEPG2TOX_R_SQUARED 0.801, PBLUC_HILL_SLOPE 2.91, PBLUC_R_SQUARED 0.114, read-out: LUCIFERASE INFECTION ASSAY - IC50) was found to be 4.12 µM.
For the molecule `Cc1cc(N2CCN(CCO)CC2)n2ncc(-c3ccc(F)cc3)c2n1`, the IC90 was determined as 7.96 µM. Also, under “PBLUC_HILL_SLOPE 1.69, PBLUC_R_SQUARED 0.874, read-out: LUCIFERASE INFECTION ASSAY - IC50”, the IC50 stood at 2.17 µM.
In the case of `Cc1cc(C(=O)C(C)OC(=O)C2=COCCO2)c(C)n1-c1ccc(Cl)cc1` (stereo not given), the IC90 was over 10 µM. Besides, the IC50 under setting [1] came out at 6.48 µM.
The like results for `Cc1cccc(NS(=O)(=O)c2cc(C(=O)OCC(=O)Nc3ccc(F)c(F)c3F)ccc2C)c1` were, in that order, over 10 µM and over 10 µM.
Consider `CCOC(=O)c1c(-c2ccc(C)cc2C)csc1NC(=O)COC(=O)c1cc(OC)c(OC)cc1[N+](=O)[O-]`, for which the IC90 amounted to 9.51 µM. Besides, the IC50 (FFLUC_HILL_SLOPE 2.01, FFLUC_R_SQUARED 0.464, HEPG2TOX_HILL_SLOPE 2.45, HEPG2TOX_R_SQUARED 0.944, PBLUC_HILL_SLOPE 17.4, PBLUC_R_SQUARED 0.281, read-out: LUCIFERASE INFECTION ASSAY - IC50) came to 8.38 µM.
On to `COCCCN1C(=O)N(Cc2ccccc2)C(=O)C12CCN(Cc1cccc(-c3ccco3)c1)CC2`, for which the IC90 is over 6.77 µM. Further, the IC50 (PBLUC_HILL_SLOPE 3.26, PBLUC_R_SQUARED 0.648, read-out: LUCIFERASE INFECTION ASSAY - IC50) is 4.58 µM.
Consider `Cc1nnsc1C(=O)Nc1cccc(C(F)(F)F)c1`, for which the IC90 turned out to be 10.6 µM. Further, the IC50 (HEPG2TOX_HILL_SLOPE 2.18, HEPG2TOX_R_SQUARED 0.919, PBLUC_HILL_SLOPE 3.32, PBLUC_R_SQUARED 0.374, read-out: LUCIFERASE INFECTION ASSAY - IC50) was found to be 5.46 µM.
Take `COc1cccc(C(=O)Nc2ccc3nc(-c4cc(OC)c(OC)c(OC)c4)nn3c2)c1`: the IC90 is 7.64 µM. Moreover, the IC50 (PBLUC_HILL_SLOPE 1.78, PBLUC_R_SQUARED 0.523, read-out: LUCIFERASE INFECTION ASSAY - IC50) was 2.22 µM.
Take `Cc1nn(-c2ccccc2)c(N2CCCCC2)c1/C=N/Nc1cc(-c2ccccc2)c2ccccc2n1`: the IC90 was over 10 µM. For the same molecule, for the setting “FFLUC_HILL_SLOPE 1.88, FFLUC_R_SQUARED 0.83, PBLUC_HILL_SLOPE 15.6, PBLUC_R_SQUARED 0.0616, read-out: LUCIFERASE INFECTION ASSAY - IC50”, the IC50 was 8.96 µM.
Take `Cc1cc(-c2nc3c(c(=O)[nH]c(=O)n3Cc3ccccc3)n2CC2CCCO2)cc(C)c1O` (stereo not given): the IC90 was over 10 µM. In addition, under setting [1], the IC50 is over 10 µM.
With `C(=C(c1nc2ccccc2s1)c1nc2ccccc2s1)c1cccnc1`, the 90% effect concentration (IC90) turned out to be 9.07 µM. For the same molecule, the IC50 (HEPG2TOX_HILL_SLOPE 18.8, HEPG2TOX_R_SQUARED 0.503, PBLUC_HILL_SLOPE 12.3, 18.3, PBLUC_R_SQUARED 0.0559, 0.217, read-out: LUCIFERASE INFECTION ASSAY - IC50) stood at 7.82 µM.
In the case of `CCCCCC1/C(=N\O)CC(c2ccccc2)N(C)C1c1ccccc1` (stereo not given), the IC90 is over 9.42 µM. The half-inhibitory concentration (IC50) (FFLUC_HILL_SLOPE 1.59, FFLUC_R_SQUARED 0.859, read-out: LUCIFERASE INFECTION ASSAY - IC50) is over 9.42 µM.
Regarding `CSc1ccc(N2CC(C(=O)N(C)C(C)c3cccc([N+](=O)[O-])c3)CC2=O)cc1` (stereo not given), the IC90 is over 10 µM. In addition, the half-maximal inhibitory concentration (IC50) under setting [1] was over 10 µM.
